Test results published in PMC11284800 (Journal of Medicinal Chemistry, 2024).
Several values for one entry are separate records, joined by “and”; a condition that tells them apart may be missing. Equal values may be shown once. Read-outs that look alike come from different tables or passages of the source.

Assays:
human CB2R = biological target: T1, human CB2R (Homo sapiens, UniProt P34972); experiment: [3H]CP55,940 displacement assay on CHO membranes, CB2R; assay type: binding
T1 construct: host or cells: CHO-K1 (CHOK1hCB2_bgal)
T1 sequence (P34972 whole entry): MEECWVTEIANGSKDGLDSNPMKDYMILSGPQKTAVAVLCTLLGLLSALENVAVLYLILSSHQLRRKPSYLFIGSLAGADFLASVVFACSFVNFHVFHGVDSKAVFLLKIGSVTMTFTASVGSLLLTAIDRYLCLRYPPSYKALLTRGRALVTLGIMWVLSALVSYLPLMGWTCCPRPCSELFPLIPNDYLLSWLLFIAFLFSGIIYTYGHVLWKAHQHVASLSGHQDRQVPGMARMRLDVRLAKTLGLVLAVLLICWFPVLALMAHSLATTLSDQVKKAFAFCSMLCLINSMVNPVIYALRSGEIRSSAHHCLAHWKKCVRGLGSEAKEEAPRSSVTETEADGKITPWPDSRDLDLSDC

[1] = biological target: T2, human CB1R on live SNAP-CB1R-HEK293TR cells (Homo sapiens, UniProt P21554); assay type: cell-based; conditions: 250 nM probe
T2 construct: expressed in transfected cells; host or cells: HEK293TR (tetracycline-inducible)
T2 sequence (P21554 91-472): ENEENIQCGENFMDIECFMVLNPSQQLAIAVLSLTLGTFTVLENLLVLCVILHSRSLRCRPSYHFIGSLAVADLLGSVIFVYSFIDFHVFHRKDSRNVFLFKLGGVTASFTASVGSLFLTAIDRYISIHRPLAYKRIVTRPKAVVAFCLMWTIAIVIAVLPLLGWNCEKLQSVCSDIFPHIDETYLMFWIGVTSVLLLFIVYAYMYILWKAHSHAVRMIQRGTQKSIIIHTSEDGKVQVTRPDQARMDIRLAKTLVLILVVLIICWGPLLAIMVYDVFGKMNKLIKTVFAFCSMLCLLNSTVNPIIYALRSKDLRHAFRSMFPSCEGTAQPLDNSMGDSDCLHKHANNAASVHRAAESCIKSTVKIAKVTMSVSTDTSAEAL
Description: (§1) Human CB1R HEK293TR cells (same transfected cell line as for TR-FRET binding assay was used, see above) were maintained in a humidified environment at 37 °C and 5% CO2 in DMEM with 10% FBS containing blasticidin (5 μg/mL; Invitrogen) and (Zeocin; 20 μg/mL; Invitrogen).
(§2) […] The cell nuclei were stained using 0.9 μM Hoechst 33342 for 1 h incubation. After replacement of medium to serum-free conditions without Phenol red (20 μL), fluorescent probes were added (10 μL) and tested at 250 nM concentration. In case of blocking experiments, nuclei-stained cells were incubated with inhibitors (5 μM) for 30 min under serum-free conditions before probe administration. Confocal live cell imaging was performed using the Opera Phenix High Content Screening System (Revvity) at 22 °C. The probe fluorescence was monitored by kinetic measurements of 10 min with a break for probe administration. The fluorescence of one image per sample was captured using a water immersion objective (63×, NA 1.15, field of view 0.21 × 0.21 mm) at each time point. Probe detection was realized using the appropriate laser for excitation and filter for fluorescence emission. Image acquisition parameters, including laser power, offset, and gain settings, were kept constant.

[2] = tested on: human CB1R on live SNAP-CB1R-HEK293TR cells; assay type: cell-based
Description: as §1, §2

CB2R-HEK293TR = biological target: T3, CB2R-HEK293TR (Homo sapiens, UniProt P34972); experiment: Live cell confocal imaging, CB2R-HEK293TR cells; assay type: cell-based; conditions: 250 nM probe, induced CB2R expression
T3 construct: expressed in transfected cells; host or cells: HEK293TR (tetracycline-inducible)
T3 sequence (P34972 whole entry): as the sequence (P34972 whole entry) above
Description: Cells were plated onto a 384-well microplate (PhenoPlate, Revvity), at a density of 3500 cells/well (40 μL) with 1 μg/mL tetracycline for receptor-inducible expression and incubated for 48 h. The cell nuclei were stained using 0.9 μM Hoechst 33342 for 1 h incubation. After replacement of medium to serum-free conditions without Phenol red (20 μL), fluorescent probes were added (10 μL) and tested at 250 nM concentration. In case of blocking experiments, nuclei-stained cells were incubated with inhibitors (5 μM) for 30 min under serum-free conditions before probe administration. Confocal live cell imaging was performed using the Opera Phenix High Content Screening System (Revvity) at 22 °C. The probe fluorescence was monitored by kinetic measurements of 10 min with a break for probe administration. The fluorescence of one image per sample was captured using a water immersion objective (63×, NA 1.15, field of view 0.21 × 0.21 mm) at each time point. Probe detection was realized using the appropriate laser for excitation and filter for fluorescence emission. Image acquisition parameters, including laser power, offset, and gain settings, were kept constant.

[3] = Photophysical characterization in PBS; assay type: physicochemical; conditions: PBS pH 7.4
hCB1R [4] = biological target: T4, hCB1R (Homo sapiens, UniProt P21554); experiment: [3H]CP55,940 displacement assay on CHO membranes, CB1R; assay type: binding; set-up: host or cells: CHO-K1 (CHOK1hCB1_bgal)
Target sequence in this assay (P21554 whole entry): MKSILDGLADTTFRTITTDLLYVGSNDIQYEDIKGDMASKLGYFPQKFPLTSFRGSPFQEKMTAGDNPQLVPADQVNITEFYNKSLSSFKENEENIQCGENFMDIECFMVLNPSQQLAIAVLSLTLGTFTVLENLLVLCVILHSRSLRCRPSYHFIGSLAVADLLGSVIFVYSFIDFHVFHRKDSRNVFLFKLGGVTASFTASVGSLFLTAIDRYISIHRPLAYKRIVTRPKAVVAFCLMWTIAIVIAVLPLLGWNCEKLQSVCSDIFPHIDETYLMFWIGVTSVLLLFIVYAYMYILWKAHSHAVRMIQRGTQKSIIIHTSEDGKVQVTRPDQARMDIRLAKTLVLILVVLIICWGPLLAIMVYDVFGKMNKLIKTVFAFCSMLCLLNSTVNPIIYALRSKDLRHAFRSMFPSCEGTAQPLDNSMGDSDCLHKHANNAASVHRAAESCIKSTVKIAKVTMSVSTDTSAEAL

hCB1R [5] = biological target: T4, hCB1R; experiment: HTRF cAMP assay, agonist / inverse agonist mode; assay type: cell-based; set-up: expressed in transfected cells; host or cells: CHO
Target sequence in this assay (P21554 whole entry): as above

hCB1R [6] = biological target: T4, hCB1R; experiment: HTRF cAMP assay, antagonist mode (forskolin with CP55,940)
Target sequence in this assay (P21554 whole entry): as above
Description: The homogeneous time-resolved fluorescence (HTRF) cAMP assay was conducted following the manufacturer’s protocol for the cAMP-Gs Dynamic kit. […] After 15 min, reactions were stopped by the 1× cAMP-d2 conjugate in lysis buffer (5 μL/well), followed by 1× anti-cAMP cryptate conjugate in lysis buffer (5 μL/well). Following a 1 h incubation at room temperature, the plates were read in a Revvity Envision reader for time-resolved fluorescence resonance energy transfer detection at 620 and 665 nm. The HTRF ratio versus compound concentrations was plotted using Prism 8.1 (GraphPad). HTRF ratio = (signal 665 nm/signal 620 nm) × 10^4.

hCB1R [7] = biological target: T4, hCB1R; experiment: TR-FRET fluorescent ligand binding (saturation and kinetics), HEK293TR-hCB1R cell membranes; set-up: a truncated CB1R variant, CB1R91-472 was used to facilitate the FRET; expressed in transfected cells; host or cells: HEK293TR (tetracycline-inducible, pcDNA4/TO)
Target sequence in this assay (P21554 91-472): as the sequence (P21554 91-472) above

hCB1R [8] = conditions: cited from earlier work
hCB2R = biological target: hCB2R; set-up: method as in PMID 29314831; conditions: cited from earlier work
rCB1R = conditions: cited from earlier work
mCB1R = conditions: at 1 μM; cited from earlier work
[9] = fluorescent probe, direct association kinetics

## CCC(CC)(NC(=O)c1cc(-c2cc(C(F)(F)F)ccc2C(F)(F)F)n(C[C@H]2CCCO2)c1C)C(=O)NCCOCCOCCNC(=O)c1ccc2c(c1)C(=O)OC21c2ccc(N(C)C)cc2Oc2cc(N(C)C)ccc21 [Compound 29]
Human CB2R; [3H]CP55,940 displacement at 10 µM compound, ± SEM
  hCB2R % displacement at 10 µM: 18 ± 5%
Human CB2R; read-out: hCB2R Ki, [3H]CP55,940 displacement, CHO membranes stably expressing human CB2R, means of three experiments
  Ki: > 10 µM
[1]; confocal microscopy
  Staining of CB1R on induced CB1R-HEK293TR cells: selectively stain and visualize CB1R
[1]; induced CB1R-HEK293TR cells
  Time to staining of CB1R: ≤ 10 min
[2]; 250 nM probe, no CB1R expression
  Staining of uninduced CB1R-HEK293TR cells: no staining
[2]; concluded from intracellular staining in live CB1R-HEK293TR cells
  Passive permeation of outer cell membrane: able to passively permeate the outer cell membrane
CB2R-HEK293TR
  Staining of CB2R-HEK293TR cells: no staining
[3]
  Abs (absorbance maximum): 555 nm
  Em (emission maximum): 585 nm
  QY (quantum yield): 36.60% and 37%
hCB1R [4]; [3H]CP55,940 displacement, CHO membranes
  hCB1R pKi ± SEM: 5.68 ± 0.29
hCB1R [4]; radioligand binding Ki ratio
  Ki(CB2R)/Ki(CB1R): > 4.8
hCB1R [4]; read-out: hCB1R Ki, [3H]CP55,940 displacement, CHO membranes stably expressing human CB1R, means of three experiments
  Ki: 2.08 µM
hCB1R [5]
  Emax: -64%
hCB1R [5]; CB1R cAMP HTRF assay
  Functional activity at CB1R (in words): inverse agonists
hCB1R [5]; inverse agonists, n.a. is no activity
  Functional activity CB1R (cAMP assay) pEC50 or pIC50 ± SEM: 6.99 ± 0.09
hCB1R [5]; read-out: Functional activity (cAMP assay) IC50, cells stably expressing hCB1R, HTRF cAMP, inverse agonists, n.a. denotes no activity
  IC50: 0.102 µM
hCB1R [6]; antagonist mode, n.a. is no activity
  Antagonist activity (cAMP assay) pEC50 or pIC50 ± SEM: 5.7 ± 0.16
hCB1R [6]; read-out: Variation of Emax
  Emax: -88%
hCB1R [7]; [9]
  koff: 0.00433 s⁻¹
  kon: 13500 M⁻¹ s⁻¹
hCB1R [7]; fluorescent probe, read-out: RT (residence time)
  residence time: 3.85 min
hCB1R [7]; read-out: kinetic KD, fluorescent probe
  Kd: 0.365 µM
hCB1R [7]; read-out: saturation binding KD, TR-FRET saturation binding after 60 min
  Kd: 0.335 µM

## CCCCCCC(C)(C)c1cc(O)c2c(c1)OC(C)(C)[C@@H]1CC=C(CNC(=O)CCCCCNC(=O)c3ccc(-c4c5ccc(=N)c(S(=O)(=O)O)c-5oc5c(S(=O)(=O)O)c(N)ccc45)c(C(=O)O)c3)C[C@@H]21 [HU210-Alexa488]
hCB1R [8]
  Ki: 0.027 ± 0.004 µM
hCB2R
  Ki: 0.8 ± 0.2 µM

## Cc1c(C(=O)NN2CCCCC2)nn(-c2ccc(Cl)cc2Cl)c1-c1ccc(-c2ccc(CCCNC(=O)c3ccc4c(c3)C(=O)OC43c4ccc(N(C)C)cc4Oc4cc(N(C)C)ccc43)cc2)cc1 [Compound T1117]
rCB1R
  Kd: 0.46 ± 0.08 µM
mCB1R
  Ki(mCB1R): displacement: 10%
